The results in this text go back to patent US5496849A, “Sulfonic acid derivative and its pharmaceutical application” (Toray Industries, Inc., priority 1992, dated 1996).

For experiment [1], the system named is vasoconstriction of rat thoracic aorta induced by U-46619. The experiment in a line: Vasoconstriction inhibitory action (U-46619-induced constriction of thoracic aorta spiral specimens). Also noted: species or system long Evans rats. The conditions noted are these: 10 min, pH 7.4, minimum concentration at which inhibition rate was 50% or more, 10 ng/ml U-46619, drug applied 10 minutes, 37° C., read-out: Vasoconstriction Inhibitory Action MIC. As for the experimental part: Male and female long Evans rats having body weights of 150-200 g were used in this example. After sacrificing the animals by decapitation, the thoracic aorta was removed, and the outer membrane was peeled off to obtain I2 spiral specimens roughly 2 cm in length. Blood vessel specimens were warmed to 37° C. and preserved in a Magnus tube containing 10 ml of a nutrient solution aerated with 95% oxygen+5% carbon dioxide gas. The nutrient solution contained 118.3 mmol of NaCl, 4.7 mmol of KCl, […] of CaCl, 1.2 mmol of MgSO4, 1.2 mmol of KH2 PO4, 25 mmol of NaCHO3, 11.1 mmol of D-glucose, 0.03 mmol of EDTA along with 1 μg/ml each of atropin, phentolamine, mepiramine, cyproheptadine, propranolol and indometacin, and was adjusted to a pH of 7.4. Vasoconstriction was measured using an isometric transducer (Harward UF-1 Transducer and Sekonic SS-250F Graph recorder). An equilibration time of 3 hours was provided after the blood vessels were installed on the Magnus device, and fresh nutrient solution was replaced every 30 minutes during that time. […] of U-46619, having TXA2 action (to reach roughly 75% of maximum constriction), was applied for 30 minutes to constrict the vessels. The maximum stable constriction during this time was taken to be the control constriction (C1). Next, the blood vessels were washed several times with nutrient solution to remove the drug. After allowing a recovery period of 30 minutes, the test drugs were applied at various concentrations for 10 minutes followed by again constricting the vessels by applying 10 ng/ml of U-46619 for 30 minutes. The maximum stable constriction during this time was taken to be the constriction of the test drugs (C2). The inhibition rates of vasoconstriction induced by the drugs and U-46619 were determined according to the following formula, and the minimum concentration at which the inhibition rate was 50% or more was determined as the minimum inhibitory concentration (MIC).
((C1-C2)/C1)×100=Inhibition rate (%)

Experiment [2] has as its system platelet aggregation induced by U-46619 in human platelet-rich plasma (PRP). The experiment is described as follows: Platelet aggregation inhibitory action (U-46619-induced, human platelet-rich plasma). The format is cell-based. The conditions noted are these: compounds added 1 minute before U-46619, turbidity. The procedure: Human whole blood drawn from the median cubital vein was centrifuged for 10 minutes at 800 rpm, and the upper portion was collected as platelet-rich plasma (PRP). […] The size of the aggregates were measured with a platelet aggregate measuring instrument (Hematracer 1, Nikko Bioscience) as the change in turbidity. The compounds were added 1 minute before addition of U-46619, and the concentration which inhibits aggregation by 50% was calculated as the IC50 value.

Another experiment concerns the target T1, Thromboxane A2 Receptor (Oryctolagus cuniculus, UniProt Q6WQI8).
T1 sequence (Q6WQI8 1-233): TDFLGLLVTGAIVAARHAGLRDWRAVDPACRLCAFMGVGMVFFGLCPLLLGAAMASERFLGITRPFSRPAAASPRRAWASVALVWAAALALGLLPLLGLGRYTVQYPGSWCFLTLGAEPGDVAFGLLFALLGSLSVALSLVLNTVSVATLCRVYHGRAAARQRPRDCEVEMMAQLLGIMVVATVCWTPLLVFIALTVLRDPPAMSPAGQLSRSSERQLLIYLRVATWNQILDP
The experiment in a line: Receptor binding experiment: Thromboxane A2 Receptor Binding Test ([3H]SQ29548, washed platelets). Also noted: species or system New Zealand White rabbits. The conditions noted are these: rabbit washed platelets; [3H]SQ29548 3 nM; 60 minutes at 25° C.; read-out: Binding Inhibitory Action IC50 (converted). The procedure:
Whole blood from New Zealand White rabbits was collected into a container containing ACD solution (1.175 g of sodium citrate, 0.685 g of citric acid, and 1 g of dextrose dissolved in 50 ml of distilled water) followed by centrifuging at room temperature for 10 minutes at 180 ×g to obtain platelet-rich plasma. Moreover, this platelet-rich plasma was further centrifuged at room temperature and 2800 ×g to result in sedimentation of the platelets. The platelets were resuspended in 50 mM Tris hydrochloric acid buffer solution (pH 7.2, containing […]) and again centrifuged at 4° C. for 15 minutes at 2800 ×g. This procedure was repeated twice to prepare the washed platelets, and adjusted to a final concentration of 10 mg/ml (wet weight). Tritium-labelled SQ29548 ([3H]SQ29548) was used for the TXA2 ligand. In an antagonism experiment, 20 μl of [3H]SQ29548 at a final concentration of 3 nM were added to 500 μl of a 10 mg/ml platelet suspension, together with adding 2.6 μl of the test drug dissolved in a suitable buffer. After incubating for 60 minutes at 25° C., the mixture was filtered over a glass filter using the Celherbster method, the filter was washed with 50 mM Tris hydrochloric acid buffer solution (3 ×4 ml), and radioactivity was measured with a scintillation counter to determine the amount of [3H]SQ29548 bound to the platelets. In addition, in a saturation test, 20 μl of [3H]SQ29548 were added to a final concentration of 0.1-50 nM followed by the addition of 2.6 μl of BM13505 at a final concentration of 1 μM in order to examine non-specific binding and carry out a binding experiment. The concentration of the test drug which inhibited binding of [3H]SQ29548 by 50% was determined as the IC50 value.

A word on the IC50: it is the concentration needed to halve the response being measured.

Consider `O=C(O)c1cccc2c1O[C@H]1C[C@@H](O)[C@H](NS(=O)(=O)c3ccccc3)[C@@H]21` (racemic) [(39), (1RS, 2RS, 3aSR, 8bRS)-1-benzenesulfonamido-2-hydroxy-2,3,3a,8b-tetrahydro-1H-cyclopenta[b]benzofuran-5-carboxylic acid], for which the minimal effective concentration in experiment [1] came out at 0.25 µg/mL.
With `O=C(O)Cc1cccc2c1O[C@H]1C[C@@H](O)[C@H](NS(=O)(=O)c3ccccc3)[C@@H]21` (racemic) [(41), (1RS, 2RS, 3aSR, 8bRS)-1-benzenesulfonamido-2-hydroxy-2,3,3a,8b-tetrahydro-1H-cyclopenta[b]benzofuran-5-acetic acid], the minimal effective concentration in experiment [1] was determined as 0.25 µg/mL. Moreover, the figures for the IC50 (in experiment [2]; at Thromboxane A2 Receptor) were 1.7 µM and 2.08 µM, respectively.
The like results for `O=C(O)CCc1cccc2c1O[C@H]1C[C@@H](O)[C@H](NS(=O)(=O)c3ccccc3)[C@@H]21` (racemic) [(43), (1RS, 2RS, 3aSR, 8bRS)-1-benzenesulfonamido-2-hydroxy-2,3,3a,8b-tetrahydro-1H-cyclopenta[b]benzofuran-5-propionic acid] were, in that order, 0.3 µg/mL, 0.51 µM and 0.322 µM.
As to `O=C(O)CCCc1cccc2c1O[C@H]1C[C@@H](O)[C@H](NS(=O)(=O)c3ccccc3)[C@@H]21` (racemic) [(45), (1RS, 2RS, 3aSR, 8bRS)-1-benzenesulfonamido-2-hydroxy-2,3,3a,8b-tetrahydro-1H-cyclopenta[b]benzofuran-5-butyric acid], the IC50 is 4.3 µM in experiment [2] and 4.79 µM at Thromboxane A2 Receptor.
For the molecule `COC(=O)COc1cccc2c1O[C@H]1C[C@@H](O)[C@H](NS(=O)(=O)c3ccccc3)[C@@H]21` (racemic) [(46), (1RS, 2RS, 3aSR, 8bRS)-1-benzenesulfonamido-2-hydroxy-2,3,3a,8b-tetrahydro-1H-cyclopenta[b]benzofuran-5-yloxyacetic acid methyl ester], the minimal effective concentration in experiment [1] came out at 0.03 µg/mL. The IC50 was 0.068 µM in experiment [2] and 0.0231 µM at Thromboxane A2 Receptor.
Regarding `O=C(O)COc1cccc2c1O[C@H]1C[C@@H](O)[C@H](NS(=O)(=O)c3ccccc3)[C@@H]21` (racemic) [(47), (1RS, 2RS, 3aSR, 8bRS)-1-benzenesulfonamido-2-hydroxy-2,3,3a,8b-tetrahydro-1H-cyclopenta[b]benzofuran-5-yloxyacetic acid], the minimal effective concentration in experiment [1] worked out at 0.025 µg/mL. Moreover, the IC50 in experiment [2] is 0.018 µM; at Thromboxane A2 Receptor it was 0.0074 µM.
Regarding `O=C(O)COc1cccc2c1O[C@H]1C[C@@H](O)[C@H](NS(=O)(=O)c3ccc(C(F)(F)F)cc3)[C@@H]21` (racemic) [(65), (1RS, 2RS, 3aSR, 8bRS)-1-(p-trifluoromethylbenzenesulfonamido)-2-hydroxy-2,3,3a,8b-tetrahydro-1H-cyclopenta [b]benzofuran-5-yloxyacetic acid], the IC50 is 0.27 µM in experiment [2] and 0.0972 µM at Thromboxane A2 Receptor.
The like results for `O=C(O)COc1cccc2c1O[C@H]1C[C@@H](O)[C@H](NS(=O)(=O)Cc3ccccc3)[C@@H]21` (racemic) [(74), (1RS, 2RS, 3aSR, 8bRS)-1-phenylmethanesulfonamido-2-hydroxy-2,3,3a,8b-tetrahydro-1H-cyclopenta[b]benzofuran-5-yloxyacetic acid] were, in that order, 5.3 µM and 0.858 µM.
The matching figures for `O=C(O)COc1cccc2c1O[C@H]1C[C@@H](O)[C@H](NS(=O)(=O)CCc3ccccc3)[C@@H]21` (racemic) [(76), (1RS, 2RS, 3aSR, 8bRS)-1-(2-phenylethanesulfonamido)-2-hydroxy-2,3,3a,8b-tetrahydro-1H-cyclopenta[b]benzofuran-5-yloxyacetic acid]: 0.55 µM and 0.122 µM.
The matching figures for `O=C(O)COc1cccc2c1O[C@H]1C[C@@H](O)[C@H](NS(=O)(=O)c3ccc4ccccc4c3)[C@@H]21` (racemic) [(78), (1RS, 2RS, 3aSR, 8bRS)-1-(2-naphthalenesulfonamido)-2-hydroxy-2,3,3a,8b-tetrahydro-1H-cyclopenta[b]benzofuran-5-yloxyacetic acid]: 0.051 µM and 0.00209 µM.
With `CCCCS(=O)(=O)N[C@@H]1[C@H]2c3cccc(OCC(=O)O)c3O[C@H]2C[C@H]1O` (racemic) [(82), (1RS, 2RS, 3aSR, 8bRS)-1-butanesulfonamido-2-hydroxy-2,3,3a,8b-tetrahydro-1H-cyclopenta[b]benzofuran-5-yloxyacetic acid], the IC50 in experiment [2] was 1 µM; on Thromboxane A2 Receptor it was 1.22 µM.
The matching figures for `CCCCCCCCS(=O)(=O)N[C@@H]1[C@H]2c3cccc(OCC(=O)O)c3O[C@H]2C[C@H]1O` (racemic) [(84), (1RS, 2RS, 3aSR, 8bRS)-1-octanesulfonamido-2-hydroxy-2,3,3a,8b-tetrahydro-1H-cyclopenta[b]benzofuran-5-yloxyacetic acid]: 7.3 µM and 1.22 µM.
The like results for `COC(=O)COc1cccc2c1O[C@H]1C[C@@H](O)[C@H](CNS(=O)(=O)c3ccccc3)[C@@H]21` (racemic) [(96), (1SR, 2RS, 3aSR, 8bSR)-1-((benzenesulfonamido)methyl)-2-hydroxy-2,3,3a,8b-tetrahydro-1H-cyclopenta[b]benzofuran-5-yloxyacetic acid methyl ester] were, in that order, 0.67 µM and 0.415 µM.
As for `Cc1ccc(S(=O)(=O)O[C@H]2CC[C@@H]3Oc4c(OCC(=O)O)cccc4[C@@H]32)cc1` (racemic) [(123), (1SR, 3aSR, 8bSR)-1-((p-tolyl)sulfonyloxy)-2,3,3a,8b-tetrahydro-1H-cyclopenta[b]benzofuran-5-yloxyacetic acid], in experiment [2], the IC50 worked out at 0.093 µM.
The same measure, in the same setting: the value for `O=C(O)COc1cccc2c1O[C@H]1CC[C@H](OS(=O)(=O)c3ccc(Cl)cc3)[C@@H]21` (racemic) [(125), (1SR, 3aSR, 8bSR)-1-((p-chlorophenyl)sulfonyloxy)-2,3,3a,8b-tetrahydro-1H-cyclopenta[b]benzofuran-5-yloxyacetic acid] was 0.094 µM; that for `O=C(O)COc1cccc2c1O[C@H]1CC[C@H](OS(=O)(=O)c3ccc(F)cc3)[C@@H]21` (racemic) [(127), (1SR, 3aSR, 8bSR)-1-((p-fluorophenyl)sulfonyloxy)-2,3,3a,8b-tetrahydro-1H-cyclopenta[b]benzofuran-5-yloxyacetic acid] was 0.1 µM.
